From ChEMBL document CHEMBL3885861, “Open TG-GATES”

Organism: Rattus norvegicus
Test: Open TG-GATES - Regimen: Daily Repeat
Assay type: toxicity, organism-based, Sprague-Dawley
Parameters: regimen Daily Repeat, gender Male, age 6 weeks
Settings: in vivo, po, 0 mg/kg, route gavage, dose level Control; for APTT / Bas / Eos / Fbg / Hb / Ht / Lym / MCH / MCHC / MCV / Mono / Neu / PT / Plat / RBC / Ret / WBC: tissue Blood; for KIDNEY_L / KIDNEY_R / KIDNEY_TOTAL: tissue Kidney; for LIVER: tissue Liver; for A/G / ALP / ALT / AST / BUN / CRE / Ca / Cl / DBIL / GLC / IP / K / LDH / Na / PL / RALB / TBIL / TC / TG / TP / gamma-GTP: tissue Plasma

Clc1c(Cl)c(Cl)c(Cl)c(Cl)c1Cl [PERCHLOROBENZENE]
TERMINAL_BW (72 h, time 3 day): 224.3 g | APTT (72 h, time 3 day): 16.2 s | Bas (72 h, time 3 day): 0% | Eos (72 h, time 3 day): 1.2% | Fbg (72 h, time 3 day): 217.4 mg/dL | Hb (72 h, time 3 day): 13.7 g/dL | Ht (72 h, time 3 day): 40.9% | Lym (72 h, time 3 day): 77% | MCH (72 h, time 3 day): 22 pg | MCHC (72 h, time 3 day): 33.5% | MCV (72 h, time 3 day): 65.6 fL | Mono (72 h, time 3 day): 8% | Neu (72 h, time 3 day): 13.8% | PT (72 h, time 3 day): 11.8 s | Plat (72 h, time 3 day): 98.6 x10_4/uL | RBC (72 h, time 3 day): 623.2 x10_4/ul | Ret (72 h, time 3 day): 8.6% | WBC (72 h, time 3 day): 102.9 x10_2/uL | KIDNEY_L (72 h, time 3 day): 1.1 g | KIDNEY_R (72 h, time 3 day): 1.1 g | KIDNEY_TOTAL (72 h, time 3 day): 2.2 g | LIVER (72 h, time 3 day): 11.5 g | A/G (72 h, time 3 day): 2.1 | ALP (72 h, time 3 day): 882.4 IU/L | ALT (72 h, time 3 day): 40.2 IU/L | AST (72 h, time 3 day): 59 IU/L | BUN (72 h, time 3 day): 16.2 mg/dL | CRE (72 h, time 3 day): 0.5 mg/dL | Ca (72 h, time 3 day): 10.5 mg/dL | Cl (72 h, time 3 day): 105.2 meq/L | DBIL (72 h, time 3 day): 0.038 mg/dL | GLC (72 h, time 3 day): 193.4 mg/dL | IP (72 h, time 3 day): 8.5 mg/dL | K (72 h, time 3 day): 5.4 meq/L | LDH (72 h, time 3 day): 85.8 IU/L | Na (72 h, time 3 day): 138.6 meq/L | PL (72 h, time 3 day): 135 mg/dL | RALB (72 h, time 3 day): 3.9 g/dL | TBIL (72 h, time 3 day): 0.3 mg/dL | TC (72 h, time 3 day): 73 mg/dL | TG (72 h, time 3 day): 68.8 mg/dL | TP (72 h, time 3 day): 5.8 g/dL | gamma-GTP (72 h, time 3 day): 1.4 IU/L | TERMINAL_BW ([…], time 7 day): 255.4 g | TERMINAL_BW ([…], time 14 day): 321.1 g | TERMINAL_BW ([…], time 28 day): 417.1 g | APTT ([…], time 7 day): 15.8 s | Bas ([…], time 7 day): 0% | Eos ([…], time 7 day): 1.2% | Fbg ([…], time 7 day): 222.8 mg/dL | Hb ([…], time 7 day): 14.2 g/dL | Ht ([…], time 7 day): 42.4% | Lym ([…], time 7 day): 76.6% | MCH ([…], time 7 day): 21.8 pg | MCHC ([…], time 7 day): 33.4% | MCV ([…], time 7 day): 65.2 fL | Mono ([…], time 7 day): 7.2% | Neu ([…], time 7 day): 14.8% | PT ([…], time 7 day): 12 s | Plat ([…], time 7 day): 96.5 x10_4/uL | RBC ([…], time 7 day): 651.2 x10_4/ul | Ret ([…], time 7 day): 5.9% | WBC ([…], time 7 day): 105.4 x10_2/uL | APTT ([…], time 14 day): 16 s | Bas ([…], time 14 day): 0% | Eos ([…], time 14 day): 1% | Fbg ([…], time 14 day): 237.6 mg/dL | Hb ([…], time 14 day): 14.4 g/dL | Ht ([…], time 14 day): 43% | Lym ([…], time 14 day): 78.8% | MCH ([…], time 14 day): 21.2 pg | MCHC ([…], time 14 day): 33.5% | MCV ([…], time 14 day): 63.2 fL | Mono ([…], time 14 day): 6.4% | Neu ([…], time 14 day): 13.8% | PT ([…], time 14 day): 11.9 s | Plat ([…], time 14 day): 106.8 x10_4/uL | RBC ([…], time 14 day): 681.2 x10_4/ul | Ret ([…], time 14 day): 5.2% | WBC ([…], time 14 day): 160.8 x10_2/uL | APTT ([…], time 28 day): 16.5 s | Bas ([…], time 28 day): 0% | Eos ([…], time 28 day): 1.2% | Fbg ([…], time 28 day): 221 mg/dL | Hb ([…], time 28 day): 15.2 g/dL | Ht ([…], time 28 day): 45.9% | Lym ([…], time 28 day): 83.4% | MCH ([…], time 28 day): 19.3 pg | MCHC ([…], time 28 day): 33.1% | MCV ([…], time 28 day): 58.5 fL | Mono ([…], time 28 day): 4.8% | Neu ([…], time 28 day): 10.8% | PT ([…], time 28 day): 11.7 s | Plat ([…], time 28 day): 97.1 x10_4/uL | RBC ([…], time 28 day): 783.8 x10_4/ul | Ret ([…], time 28 day): 2.5% | WBC ([…], time 28 day): 133.5 x10_2/uL | KIDNEY_L ([…], time 7 day): 1.1 g | KIDNEY_R ([…], time 7 day): 1.2 g | KIDNEY_TOTAL ([…], time 7 day): 2.3 g | KIDNEY_L ([…], time 14 day): 1.3 g | KIDNEY_R ([…], time 14 day): 1.3 g | KIDNEY_TOTAL ([…], time 14 day): 2.6 g | KIDNEY_L ([…], time 28 day): 1.4 g | KIDNEY_R ([…], time 28 day): 1.5 g | KIDNEY_TOTAL ([…], time 28 day): 2.9 g | LIVER ([…], time 7 day): 12.9 g | LIVER ([…], time 14 day): 15.7 g | LIVER ([…], time 28 day): 18.2 g | A/G ([…], time 7 day): 2 | ALP ([…], time 7 day): 912 IU/L | ALT ([…], time 7 day): 33.4 IU/L | AST ([…], time 7 day): 58.6 IU/L | BUN ([…], time 7 day): 19.2 mg/dL | CRE ([…], time 7 day): 0.6 mg/dL | Ca ([…], time 7 day): 10.3 mg/dL | Cl ([…], time 7 day): 105.2 meq/L | DBIL ([…], time 7 day): 0.024 mg/dL | GLC ([…], time 7 day): 193.6 mg/dL | IP ([…], time 7 day): 7.7 mg/dL | K ([…], time 7 day): 4.8 meq/L | LDH ([…], time 7 day): 95.8 IU/L | Na ([…], time 7 day): 137.4 meq/L | PL ([…], time 7 day): 148.6 mg/dL | RALB ([…], time 7 day): 4 g/dL | TBIL ([…], time 7 day): 0.4 mg/dL | TC ([…], time 7 day): 78.2 mg/dL | TG ([…], time 7 day): 94.6 mg/dL | TP ([…], time 7 day): 5.9 g/dL | gamma-GTP ([…], time 7 day): 1 IU/L | A/G ([…], time 14 day): 1.8 | ALP ([…], time 14 day): 615.2 IU/L | ALT ([…], time 14 day): 31.2 IU/L | AST ([…], time 14 day): 58.2 IU/L | BUN ([…], time 14 day): 18.6 mg/dL | CRE ([…], time 14 day): 0.6 mg/dL | Ca ([…], time 14 day): 10.2 mg/dL | Cl ([…], time 14 day): 105.6 meq/L | DBIL ([…], time 14 day): 0.004 mg/dL | GLC ([…], time 14 day): 189 mg/dL | IP ([…], time 14 day): 7.6 mg/dL | K ([…], time 14 day): 4.9 meq/L | LDH ([…], time 14 day): 98 IU/L | Na ([…], time 14 day): 138.4 meq/L | PL ([…], time 14 day): 155.6 mg/dL | RALB ([…], time 14 day): 4 g/dL | TBIL ([…], time 14 day): 0.3 mg/dL | TC ([…], time 14 day): 79 mg/dL | TG ([…], time 14 day): 136.4 mg/dL | TP ([…], time 14 day): 6.2 g/dL | gamma-GTP ([…], time 14 day): 1.2 IU/L | A/G ([…], time 28 day): 1.8 | ALP ([…], time 28 day): 643.6 IU/L | ALT ([…], time 28 day): 32.6 IU/L | AST ([…], time 28 day): 54.2 IU/L | BUN ([…], time 28 day): 18.6 mg/dL | CRE ([…], time 28 day): 0.7 mg/dL | Ca ([…], time 28 day): 10.6 mg/dL | Cl ([…], time 28 day): 105.4 meq/L | DBIL ([…], time 28 day): 0.014 mg/dL | GLC ([…], time 28 day): 193 mg/dL | IP ([…], time 28 day): 7.5 mg/dL | K ([…], time 28 day): 4.3 meq/L | LDH ([…], time 28 day): 102 IU/L | Na ([…], time 28 day): 140 meq/L | PL ([…], time 28 day): 160.4 mg/dL | RALB ([…], time 28 day): 4.2 g/dL | TBIL ([…], time 28 day): 0.3 mg/dL | TC ([…], time 28 day): 77 mg/dL | TG ([…], time 28 day): 140.6 mg/dL | TP ([…], time 28 day): 6.5 g/dL | gamma-GTP ([…], time 28 day): 1 IU/L
